Columns and labels:
Solubility determination = format: physicochemical; settings: water, result in words
[1] = Blood drug level in the rat deep vein thrombosis model; settings: intravenous infusion of 0.1 mg/kg/h compound V
Description: Preparation of solution: An appropriate amount of Form I was weighed, dissolved in a vehicle (0.5% (W/V) Natrosol™ 250 HX solution containing 0.1% (W/V) L(+)-tartaric acid) to formulate into the required concentration and then stirred uniformly, so that the drug was administered according to the predetermined dose.
Procedure: Rats were acclimatized for 3 days and randomly divided into three groups: model group, positive control group/subject group and bridging group, with 8 to 10 rats in each group. […] Rats in each group were anesthetized with urethane (20%, 5 mL/kg) via intraperitoneal injection. The abdominal cavity was exposed, the vena cava was bluntly separated, and two surgical sutures of 8 to 10 cm in length were placed under the blood vessels, both 1 cm apart. When the modeling time of each group was reached, rabbit thromboplastin (0.02 mg/kg) was injected into the left femoral vein, and the two sutures were knotted 10 s later, and the knotted portion of the suture was cut with ophthalmic scissors after 1 h. The thrombus was removed and weighed.

[2] = test system: Rats model of deep vein thrombosis; test: Rat model of deep vein thrombosis (thrombus weight); format: in vivo, SD rats
Description: Experimental animals: SD rats (body weight 220 to 250 g, sex: male)
The thrombus was removed and weighed.

[3] = 0.1 mg/kg/h, intravenous infusion

| Compound | aqueous solubility (Solubility determination) | Blood drug level [1] [ng/mL] | Thrombosis inhibition rate (%) [2, 3] [%] | Thrombus weight [2, 3] [mg] | antithrombotic effect compared with oral administration of 5 mg/kg Form I ([2]; intravenous infusion of 0.1 mg/kg/h in rats) |
| --- | --- | --- | --- | --- | --- |
| CCCCCCOC(=O)NC(=N)c1ccc(CNC(=O)[C@@H]2CCCN2C(=O)[C@@H](CC(C)C)NCC(=O)OCC)cc1 | insoluble in water | – | – | – | – |
| CC(C)C[C@@H](NCC(=O)O)C(=O)N1CCC[C@H]1C(=O)NCc1ccc(C(=N)N)cc1 [Compound V] | – | 174.2 ± 51.8 | 48.2 | 36.8 ± 6.6 | comparable |

From patent EP4667482A1, “SALT OF DIPEPTIDE COMPOUND, PREPARATION METHOD THEREFOR, AND USE THEREOF” (Zhejiang Huahai Pharmaceutical Co., Ltd., priority 2023, dated 2024)
